Assay results reported in patent US20250018019A1, “TREATMENT OF INTERFERON DRIVEN INFLAMMATION” (The Provost, Fellows, Foundation Scholars and the other …, priority 2023, published 2025).
Structures can show the parent of a compound that is named as a salt.

Assays:
[1] = test system: human PBMCs; assay: ELISA of IFN-β release from human PBMCs; format: cell-based; settings: human PBMCs pre-treated, LPS 4 h
Experimental: Human blood samples from healthy donors were collected and processed at the School of Biochemistry and Immunology in TBSI (TCD). Blood samples were obtained anonymously and written informed consent for the use of blood for research purposes has been obtained from the donors. All the procedures involving experiments on human samples have been approved by the School of Biochemistry and Immunology Research Ethics Committee (TCD). Experiments were conducted according to the TCD guide on good research practice, which follows the guidelines detailed in the National Institutes of Health Belmont Report (1978) and the Declaration of Helsinki. […] The remaining pellet of mononuclear cells was resuspended, counted, and plated at 1×10^6 cells/ml in RPMI supplemented with FCS (10%) and penicillin/streptomycin (1%). […]
DuoSet ELISA kits for IL-1β, TNFα, IL-6, IL-10, and GDF15 were purchased from R&D Systems and were carried out according to the manufacturer's instructions with appropriately diluted cell supernatants added to each plate in duplicate or triplicate. IFN-β was determined using DuoSet ELISA kit from R&D Systems or Abcam (ab252363). […] Absorbance at 450 nm was quantified using a FLUOstar Optima plate reader. […]

[2] = test system: BMDMs; assay: RNA sequencing (GSEA, ORA) of BMDMs; format: cell-based, mouse; settings: LPS 4 h; for ERK1/2 cascade and PI3K signalling (shared transcriptomic changes) / amino acid metabolism and transport, and autophagy transcripts: BMDMs pre-treated
Experimental: All compounds used DMSO as a vehicle except for 4-hydroxy tamoxifen (EtOH), NAC (PBS), and AOAA for tracing experiments (Media). LPS was used at a concentration of 100 ng/ml for indicated timepoints (2, 3, 4, 6, 8, 24, 48 h). FHIN1 (10 or 20 μM), MMF (50 or 100 μM), DMF (25 μM), AOAA (5 mM), oligomycin (10 μM), CCCP (50 μM) NAC (1 mM), and IMT1 (10 μM) pre-treatments were performed for 3 h prior the addition of LPS. Cells were treated with valinomycin (10 nM) 15 mins before LPS stimulation. Anti-CD210 or IgG control (10 μg/ml) antibodies were added to cells 1 h prior to LPS stimulation. Recombinant mouse IL-10 protein (100 ng/ml) was added to cells at the same time as LPS. Cells were treated with IFN-B1 (220 ng/ml) for 3 h. Cells were treated with C-178 (1 μM) 1 h prior to LPS stimulation or transfection with 2′3′-cGAMP (1.5 μg/ml) for 4 hrs to achieve cGAS-STING activation. Cells were treated with ODN 2088 (1 μM) for 1 hr prior to LPS stimulation or transfection with CPG ODN 1826 (1.5 μg/ml) to achieve TLR9 activation. 3 different timepoints of 4-hydroxy tamoxifen (TAM) (600 nM or 2 μM) or EtOH treatment were performed-these are specified in the individual figure legends. For ‘48 h’ treatments EtOH/TAM was added on day 5 of 6 during the BMDM differentiation protocol. On day 6 they were plated with EtOH/TAM (left overnight) and treated the following day. For ‘72 h’ treatments EtOH/TAM was added on day […] of 6 during the BMDM differentiation protocol. On day 6 they were plated with EtOH/TAM (left overnight) and treated the following day. For ‘96 h’ treatments EtOH/TAM was added on day […] of 6 during the BMDM differentiation protocol. On day 6 they were plated with EtOH/TAM and treated 2 days later.
BMDMs (3 independent mice) were treated as indicated and RNA was extracted as previously detailed. mRNA was extracted from total RNA using poly-T-oligo-attached magnetic beads. After fragmentation, the first strand cDNA was synthesized using random hexamer primers, followed by the second strand cDNA synthesis. The library was checked with Qubit and real-time PCR for quantification and bioanalyzer for size distribution detection. Quantified libraries were pooled and sequenced on the NovaSeq 6000 S4 (Illumina). Differential expression analysis of two conditions/groups was performed using counted reads and the DESeq2 R package^67. Pathway enrichment analyses were performed as indicated in quantification and statistical analysis.
Details of all statistical analyses performed can be found in the figure legends. Data were expressed as mean±standard error of the mean (SEM) unless stated otherwise. Representative western blots are shown. For metabolomics data, MetaboAnalyst 5.0^66 was used to analyse, perform statistics, and visualise the results. Autoscaling of features (metabolites) was used for heatmap generation. One-way ANOVA corrected for multiple comparisons by the Tukey statistical test was used and a p.adjusted<0.05 was set as the cut-off. For proteomics data, protein signal intensity was converted to a log2 scale and biological replicates were grouped by experimental condition. Protein-wise linear models combined with empirical Bayes statistics were used for the differential expression analyses. The Bioconductor package limma was used to carry out the analysis using an R based online tool^68. […] The proteomics cut-offs for analysis were a log2FC of 0.5 and a false discovery rate (FDR)<0.05, determined using t statistics. RNA seq cut-offs were set to log2FC of 1 and an FDR<0.05. Overrepresentation analysis (ORA) of significant changes were assessed using Enrichr^4 and the Bioconductor package clusterProfiler 4.0 in R (version 3.6.1). Further information on this visualisation method is available^69. Emapplots were generated using enrichplot package in R (version 3.6.1). GSEA analysis of RNAseq was performed using the Broad Institutes GSEA 4.1.070. […]

[3] = target: T1, c-Fos (Mus musculus, UniProt P01101); assay: c-Fos activity assay (AP1 transcription factor assay on nuclear extracts); format: cell-based; settings: BMDMs pre-treated 3 h, LPS 4 h
T1 construct: nuclear extracts were isolated using a Nuclear Extraction Kit; endogenous in cells; host or cells: mouse bone-marrow-derived macrophages (BMDMs), nuclear extract
T1 sequence (P01101 whole entry): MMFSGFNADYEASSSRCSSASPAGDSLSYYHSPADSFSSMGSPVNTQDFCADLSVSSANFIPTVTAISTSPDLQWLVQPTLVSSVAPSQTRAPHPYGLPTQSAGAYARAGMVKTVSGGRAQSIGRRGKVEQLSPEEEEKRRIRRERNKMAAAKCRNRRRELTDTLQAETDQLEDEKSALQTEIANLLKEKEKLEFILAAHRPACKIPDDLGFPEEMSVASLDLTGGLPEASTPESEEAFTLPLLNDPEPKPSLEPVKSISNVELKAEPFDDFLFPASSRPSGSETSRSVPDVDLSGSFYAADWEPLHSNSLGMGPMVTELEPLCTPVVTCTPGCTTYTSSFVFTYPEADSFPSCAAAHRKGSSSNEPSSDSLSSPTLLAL
T1 sequence (P05627 whole entry partner): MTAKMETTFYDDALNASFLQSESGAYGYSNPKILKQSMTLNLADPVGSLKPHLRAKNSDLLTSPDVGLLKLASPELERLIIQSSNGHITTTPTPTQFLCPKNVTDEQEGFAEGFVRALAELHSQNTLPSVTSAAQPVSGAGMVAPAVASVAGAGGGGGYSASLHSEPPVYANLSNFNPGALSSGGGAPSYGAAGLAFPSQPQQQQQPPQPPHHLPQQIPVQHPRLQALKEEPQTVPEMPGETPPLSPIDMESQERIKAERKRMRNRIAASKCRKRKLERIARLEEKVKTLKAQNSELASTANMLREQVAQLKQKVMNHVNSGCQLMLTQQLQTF
Experimental: BMDMs from 3 mice were plated in 10 cm dishes at 0.5×10^6 cells/mL and left overnight. Cells were pre-treated with FHIN1 or DMF (3 h) prior to LPS stimulation (4 h). Upon harvesting, nuclear extracts were isolated using a Nuclear Extraction Kit (ab113474) purchased from Abcam. Nuclear extracts were quantified via BCA assay and standardised. c-Fos relative activity was then quantified using the AP1 transcription factor assay purchased from Abcam (Ab207196) according to the manufacturers protocol.

With `COC(=O)/C=C/C(=O)OC` [DMF, dimethyl fumarate] the “LPS-induced IFN-β release” value [1] was “suppressed”, the “Fos expression (RNA seq)” value ([2]; BMDMs pre-treated vs DMSO) was “not reduced” and the “Jun expression (RNA seq)” value ([2]; BMDMs pre-treated vs DMSO) was “reduced”. The “other ISGs, such as Lcn2 (RNAseq)” value ([2]; BMDMs pre-treated vs DMSO) was “suppressed”, the “ERK1/2 cascade and PI3K signalling (shared transcriptomic changes)” value [2] was “strong downregulation” and the “amino acid metabolism and transport, and autophagy transcripts” value [2] was “increased”. For the same compound, the c-Fos activation [3] was “strongly impaired”.
In the case of `CCOC(=O)[C@@]12CCCC=C1N(Cc1ccc(-c3ccccc3)cc1)C(=O)[C@H]2CC(=O)NC` [FHIN1, Fumarate hydratase-IN-1], the “LPS-induced IFN-β release” value [1] is reported as “boosted”, the “Fos expression (RNA seq)” value ([2]; BMDMs pre-treated vs DMSO) is reported as “not reduced” and the “Ifnb1 (IFN-β) expression and several interferon-stimulated genes (Irf1, Ifih1, Rsad2, Ifit2), RNAseq” value ([2]; BMDMs pre-treated vs DMSO) is reported as “upregulation”. The “Jun expression (RNA seq)” value ([2]; BMDMs pre-treated vs DMSO) was “reduced”, the “NRF2 and ATF4 stress response” value ([2]; BMDMs pre-treated vs DMSO) was “activation” and the “TNF-α signalling (overrepresentation analysis of RNAseq)” value ([2]; BMDMs pre-treated vs DMSO) was “most highly upregulated pathway”. The “expression of HRI stress response, amino acid metabolism and tRNA aminoacylation (GSEA)” value ([2]; BMDMs pre-treated vs DMSO) was “Increased expression”, the “expression of inflammatory pathways, including IL-1 and IL-10 signalling (GSEA)” value ([2]; BMDMs pre-treated vs DMSO) was “decreased” and the “genes associated with metabolism (GSEA)” value ([2]; BMDMs pre-treated vs DMSO) was “suppression”. The “other ISGs, such as Lcn2 (RNAseq)” value ([2]; BMDMs pre-treated vs DMSO) was “suppressed”, the “ERK1/2 cascade and PI3K signalling (shared transcriptomic changes)” value [2] was “strong downregulation” and the “amino acid metabolism and transport, and autophagy transcripts” value [2] was “increased”. For the same compound, the c-Fos activation [3] was “strongly impaired”.
